System: UM16 cell line
Test: GSEA of proteomics data ([…], KEGG pathways)
Assay type: cell-based
Settings: for ES / NES: 5 μM, 24 hours
Description: Several proteins participating in energy metabolism were dramatically changed.

[1] = HALLMARK_ADIPOGENESIS, FDR q-val 0.644
[2] = HALLMARK_ALLOGRAFT_REJECTION, FDR q-val 0.521
[3] = HALLMARK_ANDROGEN_RESPONSE, FDR q-val 0.915
[4] = HALLMARK_APOPTOSIS, FDR q-val 0.666
[5] = HALLMARK_BILE_ACID_METABOLISM, FDR q-val 0.245
[6] = HALLMARK_CHOLESTEROL_HOMEOSTASIS, FDR q-val 0.314
[7] = HALLMARK_COAGULATION, FDR q-val 0.004
[8] = HALLMARK_COMPLEMENT, FDR q-val 0.425
[9] = HALLMARK_DNA_REPAIR, FDR q-val 0.454
[10] = HALLMARK_E2F_TARGETS, FDR q-val 0.077
[11] = HALLMARK_EPITHELIAL_MESENCHYMAL_TRANSITION, FDR q-val 0.456
[12] = HALLMARK_G2M_CHECKPOINT, FDR q-val 0.107
[13] = HALLMARK_GLYCOLYSIS, FDR q-val 0.489
[14] = HALLMARK_HEME_METABOLISM, FDR q-val 0.552
[15] = HALLMARK_HYPOXIA, FDR q-val 0.003
[16] = HALLMARK_IL2_STAT5_SIGNALING, FDR q-val 0.552
[17] = HALLMARK_MITOTIC_SPINDLE, FDR q-val 0.529
[18] = HALLMARK_MYC_TARGETS_V1, FDR q-val 0.006
[19] = HALLMARK_MYC_TARGETS_V2, FDR q-val 0.264
[20] = HALLMARK_MYOGENESIS, FDR q-val 0.467
[21] = HALLMARK_OXIDATIVE_PHOSPHORYLATION, FDR q-val 0.711
[22] = HALLMARK_P53_PATHWAY, FDR q-val 0.146
[23] = HALLMARK_PEROXISOME, FDR q-val 0.645
[24] = HALLMARK_PROTEIN_SECRETION, FDR q-val 0.862
[25] = HALLMARK_SPERMATOGENESIS, FDR q-val 0.851
[26] = HALLMARK_TGF_BETA_SIGNALING, FDR q-val 0.771
[27] = HALLMARK_TNFA_SIGNALING_VIA_NFKB, FDR q-val 0.457
[28] = HALLMARK_UNFOLDED_PROTEIN_RESPONSE, FDR q-val 0.070
[29] = HALLMARK_UV_RESPONSE_DN, FDR q-val 0.510
[30] = HALLMARK_XENOBIOTIC_METABOLISM, FDR q-val 0.488
[31] = KEGG_ADIPOCYTOKINE_SIGNALING_PATHWAY, FDR q-val 0.903
[32] = KEGG_ARGININE_AND_PROLINE_METABOLISM, FDR q-val 0.668
[33] = KEGG_B_CELL_RECEPTOR_SIGNALING_PATHWAY, FDR q-val 0.813
[34] = KEGG_CARDIAC_MUSCLE_CONTRACTION, FDR q-val 0.900
[35] = KEGG_CYTOSOLIC_DNA_SENSING_PATHWAY, FDR q-val 0.907
[36] = KEGG_FC_EPSILON_RI_SIGNALING_PATHWAY, FDR q-val 0.825
[37] = KEGG_GAP_JUNCTION, FDR q-val 0.898
[38] = KEGG_GLYCEROLIPID_METABOLISM, FDR q-val 0.663
[39] = KEGG_GLYCOLYSIS_GLUCONEOGENESIS, FDR q-val 0.889
[40] = KEGG_INOSITOL_PHOSPHATE_METABOLISM, FDR q-val 0.852
[41] = KEGG_INSULIN_SIGNALING_PATHWAY, FDR q-val 0.872
[42] = KEGG_LYSINE_DEGRADATION, FDR q-val 0.914
[43] = KEGG_MELANOGENESIS, FDR q-val 0.638
[44] = KEGG_NON_SMALL_CELL_LUNG_CANCER, FDR q-val 0.894
[45] = KEGG_NUCLEOTIDE_EXCISION_REPAIR, FDR q-val 0.829
[46] = KEGG_PATHWAYS_IN_CANCER, FDR q-val 0.858
[47] = KEGG_PEROXISOME, FDR q-val 0.839
[48] = KEGG_PROP_ANOATE_METABOLISM, FDR q-val 0.889
[49] = KEGG_PURINE_METABOLISM, FDR q-val 0.909
[50] = KEGG_VIRAL_MYOCARDITIS, FDR q-val 0.832

For `CCOC(=O)[C@@H]1CCCN(S(=O)(=O)c2ccc(S(=O)(=O)N(CC)CC)cc2)C1` [DX2-201, ethyl (R)-1-((4-(N,N-diethylsulfamoyl)phenyl)sulfonyl)piperidine-3-carboxylate], the “TCA cycle (proteomic results)” value was “suppressed”, the “hypoxia pathways, bile acid metabolism, cholesterol homoeostasis and glycolysis (proteomic results)” value was “upregulated” and the ES [1] was 0.317. The NES [1] was 1.025, the ES [2] was −0.287 and the NES [2] was −1.082. The ES [3] was 0.259, the NES [3] was 0.760 and the ES [4] was 0.335. It also gave an NES [4] of 1.042, an ES [5] of 0.523 and an NES [5] of 1.465. The ES [6] was 0.493, the NES [6] was 1.407 and the ES [7] was 0.636. For the same compound, the NES [7] was 1.813, the ES [8] was 0.401 and the NES [8] was 1.235. It also gave an ES [9] of 0.381, an NES [9] of 1.239 and an ES [10] of −0.349. For the same compound, the NES [10] was −1.559, the ES [11] was 0.449 and the NES [11] was 1.312. It also gave an NES (HALLMARK_ESTROGEN_RESPONSE_EARLY, FDR q-val 0.813) of 0.929, an ES [12] of −0.313 and an NES [12] of −1.421. It also gave an ES [13] of 0.399, an NES [13] of 1.281 and an ES [14] of 0.376. It also gave an NES [14] of 1.150, an ES [15] of 0.595 and an NES [15] of 1.851. For the same compound, the ES [16] was 0.384, the NES [16] was 1.176 and the ES [17] was 0.348. The NES [17] was 1.170, the ES [18] was −0.424 and the NES [18] was −1.975. It also gave an ES [19] of −0.329, an NES [19] of −1.215 and an ES [20] of −0.285. The NES [20] was −1.077, the ES [21] was −0.214 and the NES [21] was −0.938. It also gave an ES [22] of −0.323, an NES [22] of −1.338 and an ES [23] of 0.347. For the same compound, the NES [23] was 1.037, the ES [24] was −0.207 and the NES [24] was −0.842. For the same compound, the ES [25] was −0.229, the NES [25] was −0.803 and the ES [26] was −0.296. For the same compound, the NES [26] was −0.944, the ES [27] was 0.448 and the NES [27] was 1.335. For the same compound, the ES [28] was −0.372, the NES [28] was −1.517 and the ES [29] was 0.433. For the same compound, the NES [29] was 1.256, the ES [30] was 0.393 and the NES [30] was 1.244. It also gave an ES [31] of 0.390, an NES [31] of 1.046 and an NES (KEGG_ANTIGEN_PROCESSING_AND_PRESENTATION, FDR q-val 0.792) of −0.917. The ES [32] was 0.543, the NES [32] was 1.389 and the NES (KEGG_BASAL_TRANSCRIPTION_FACTORS, FDR q-val 0.687) was −1.121. The ES [33] was 0.504, the NES [33] was 1.432 and the ES [34] was 0.469. The NES [34] was 1.177, the NES (KEGG_CELL_CYCLE, FDR q-val 0.828) was −0.995 and the NES (KEGG_CITRATE_CYCLE_TCA_CYCLE, FDR q-val 0.422) was −1.416. For the same compound, the ES [35] was 0.469, the NES [35] was 1.166 and the NES (KEGG_DNA_REPLICATION, FDR q-val 0.844) was −0.919. For the same compound, the NES (KEGG_ERBB_SIGNALING_PATHWAY, FDR q-val 0.821) was 1.410, the ES [36] was 0.593 and the NES [36] was 1.623. The ES [37] was 0.386, the NES [37] was 1.041 and the ES [38] was 0.572. It also gave an NES [38] of 1.376, an ES [39] of 0.394 and an NES [39] of 1.086. It also gave an ES [40] of 0.520, an NES [40] of 1.277 and an ES [41] of 0.352. For the same compound, the NES [41] was 1.077, the ES [42] was 0.381 and the NES [42] was 1.007. For the same compound, the ES [43] was 0.534, the NES [43] was 1.369 and the ES [44] was 0.415. For the same compound, the NES [44] was 1.092, the ES [45] was 0.469 and the NES [45] was 1.271. For the same compound, the NES (KEGG_N_GLYCAN_BIOSYNTHESIS, FDR q-val 0.658) was −1.160, the NES (KEGG_PARKINSONS_DISEASE, FDR q-val 0.702) was −1.180 and the ES [46] was 0.324. For the same compound, the NES [46] was 1.074, the ES [47] was 0.459 and the NES [47] was 1.302. The ES [48] was 0.424, the NES [48] was 1.079 and the NES (KEGG_PROTEASOME, FDR q-val 0.605) was −1.425. The NES (KEGG_PROTEIN_EXPORT, FDR q-val 0.625) was −1.116, the ES [49] was 0.331 and the NES [49] was 1.023. It also gave an NES (KEGG_RIBOSOME, FDR q-val 0.003) of −2.132, an NES (KEGG_RNA_DEGRADATION, FDR q-val 0.672) of −1.228 and an NES (KEGG_SPLICEOSOME, FDR q-val 0.541) of −1.319. For the same compound, the NES (KEGG_VIBRIO_CHOLERAE_INFECTION, FDR q-val 0.754) was −1.044, the ES [50] was 0.497 and the NES [50] was 1.292.

Source: patent publication US20230212122A1, “MITOCHONDRIAL TARGETING COMPOUNDS FOR THE TREATMENT OF ASSOCIATED DISEASES” (The Regents of the University of Michigan, priority 2020, published 2023)
